Data reported in ChEMBL document CHEMBL1201862, “PubChem BioAssay data set” (2004).
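Assay format: 96-well plates, 48-hour exposure. GI50 is the concentration that inhibits growth by half.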 Active and inactive are the calls of the source. No stated cut-off is given here; in the data, active = GI50 up to about 1.1 µM and inactive = higher.

Assays:
Experiment in all cases: NCI tumour cell line growth inhibition, 48 h
786-0 = tested on: 786-0
A498 = tested on: A498
A549 = tested on: A549
ACHN = tested on: ACHN
BT-549 = tested on: BT-549
CAKI-1 = tested on: CAKI-1
CCRF-CEM = tested on: CCRF-CEM
COLO 205 = tested on: COLO 205
DU-145 = tested on: DU-145
EKVX = tested on: EKVX
HCT-116 = tested on: HCT-116
HCT-15 = tested on: HCT-15
HL-60 = tested on: HL-60
HOP-62 = tested on: HOP-62
HOP-92 = tested on: HOP-92
HT-29 = tested on: HT-29
Hs-578T = tested on: Hs-578T
IGROV-1 = tested on: IGROV-1
K562 = tested on: K562
KM12 = tested on: KM12
LOX IMVI = tested on: LOX IMVI
M14 = tested on: M14
MCF7 = tested on: MCF7
MDA-MB-231 = tested on: MDA-MB-231
MDA-MB-435 = tested on: MDA-MB-435
MDA-N = tested on: MDA-N
MOLT-4 = tested on: MOLT-4
Malme-3M = tested on: Malme-3M
NCI-H23 = tested on: NCI-H23
NCI-H460 = tested on: NCI-H460
NCI-H522 = tested on: NCI-H522
NCI/ADR-RES = tested on: NCI/ADR-RES
OVCAR-3 = tested on: OVCAR-3
OVCAR-4 = tested on: OVCAR-4
OVCAR-5 = tested on: OVCAR-5
OVCAR-8 = tested on: OVCAR-8
PC-3 = tested on: PC-3
RPMI-8226 = tested on: RPMI-8226
RXF 393 = tested on: RXF 393
SF-268 = tested on: SF-268
SF-295 = tested on: SF-295
SF-539 = tested on: SF-539
SK-MEL-28 = tested on: SK-MEL-28
SK-MEL-2 = tested on: SK-MEL-2
SK-MEL-5 = tested on: SK-MEL-5
SK-OV-3 = tested on: SK-OV-3
SN12C = tested on: SN12C
SNB-19 = tested on: SNB-19
SNB-75 = tested on: SNB-75
SR = tested on: SR
SW-620 = tested on: SW-620
T47D = tested on: T47D
TK-10 = tested on: TK-10
U-251 = tested on: U-251
UACC-257 = tested on: UACC-257
UACC-62 = tested on: UACC-62
UO-31 = tested on: UO-31
HCC 2998 = tested on: HCC 2998
NCI-H226 = tested on: NCI-H226

NCCc1nc(-c2nc(C(=O)O)cs2)cs1
GI50 (786-0): > 100 µM (inactive)
GI50 (A498): > 100 µM (inactive)
GI50 (A549): > 100 µM (inactive)
GI50 (ACHN): > 100 µM (inactive)
GI50 (BT-549): > 100 µM (inactive)
GI50 (CAKI-1): > 100 µM (inactive)
GI50 (CCRF-CEM): > 100 µM (inactive)
GI50 (COLO 205): > 100 µM (inactive)
GI50 (DU-145): > 100 µM (inactive)
GI50 (EKVX): > 100 µM (inactive)
GI50 (HCT-116): > 100 µM (inactive)
GI50 (HCT-15): > 100 µM
GI50 (HL-60): > 100 µM (inactive)
GI50 (HOP-62): > 100 µM (inactive)
GI50 (HOP-92): > 100 µM (inactive)
GI50 (HT-29): > 100 µM (inactive)
GI50 (Hs-578T): > 100 µM (inactive)
GI50 (IGROV-1): > 100 µM (inactive)
GI50 (K562): > 100 µM (inactive)
GI50 (KM12): > 100 µM (inactive)
GI50 (LOX IMVI): > 100 µM (inactive)
GI50 (M14): > 100 µM (inactive)
GI50 (MCF7): > 100 µM (inactive)
GI50 (MDA-MB-231): > 100 µM (inactive)
GI50 (MDA-MB-435): > 100 µM (inactive)
GI50 (MDA-N): > 100 µM (inactive)
GI50 (MOLT-4): > 100 µM (inactive)
GI50 (Malme-3M): > 100 µM (inactive)
GI50 (NCI-H23): > 100 µM (inactive)
GI50 (NCI-H460): > 100 µM (inactive)
GI50 (NCI-H522): > 100 µM (inactive)
GI50 (NCI/ADR-RES): > 100 µM (inactive)
GI50 (OVCAR-3): > 100 µM (inactive)
GI50 (OVCAR-4): > 100 µM (inactive)
GI50 (OVCAR-5): > 100 µM (inactive)
GI50 (OVCAR-8): > 100 µM (inactive)
GI50 (PC-3): > 100 µM (inactive)
GI50 (RPMI-8226): > 100 µM (inactive)
GI50 (RXF 393): > 100 µM (inactive)
GI50 (SF-268): > 100 µM (inactive)
GI50 (SF-295): > 100 µM (inactive)
GI50 (SF-539): > 100 µM (inactive)
GI50 (SK-MEL-28): > 100 µM (inactive)
GI50 (SK-MEL-2): > 100 µM (inactive)
GI50 (SK-MEL-5): > 100 µM (inactive)
GI50 (SK-OV-3): > 100 µM (inactive)
GI50 (SN12C): > 100 µM (inactive)
GI50 (SNB-19): > 100 µM (inactive)
GI50 (SNB-75): > 100 µM (inactive)
GI50 (SR): > 100 µM (inactive)
GI50 (SW-620): > 100 µM (inactive)
GI50 (T47D): > 100 µM (inactive)
GI50 (TK-10): > 100 µM (inactive)
GI50 (U-251): > 100 µM (inactive)
GI50 (UACC-257): > 100 µM (inactive)
GI50 (UACC-62): > 100 µM (inactive)
GI50 (UO-31): > 100 µM (inactive)

O=C(CC(c1ccccc1)C1C(=O)NC(=S)NC1=O)c1ccc([N+](=O)[O-])cc1 (configuration not stated)
GI50 (786-0): > 100 µM (inactive)
GI50 (A498): > 100 µM (inactive)
GI50 (A549): > 100 µM (inactive)
GI50 (ACHN): > 100 µM (inactive)
GI50 (BT-549): > 100 µM (inactive)
GI50 (CAKI-1): 22.4 µM (inactive)
GI50 (CCRF-CEM): > 100 µM (inactive)
GI50 (COLO 205): > 100 µM (inactive)
GI50 (DU-145): > 100 µM (inactive)
GI50 (EKVX): 31.8 µM (inactive)
GI50 (HCC 2998): 31.6 µM (inactive)
GI50 (HCT-116): 76.6 µM (inactive)
GI50 (HCT-15): > 100 µM
GI50 (HL-60): > 100 µM (inactive)
GI50 (HOP-62): > 100 µM (inactive)
GI50 (HOP-92): > 100 µM (inactive)
GI50 (HT-29): > 100 µM (inactive)
GI50 (Hs-578T): > 100 µM (inactive)
GI50 (IGROV-1): > 100 µM (inactive)
GI50 (K562): > 100 µM (inactive)
GI50 (KM12): 65.2 µM (inactive)
GI50 (LOX IMVI): 63.4 µM (inactive)
GI50 (M14): > 100 µM (inactive)
GI50 (MCF7): 17.7 µM (inactive)
GI50 (MDA-MB-231): > 100 µM (inactive)
GI50 (MDA-MB-435): > 100 µM (inactive)
GI50 (MDA-N): > 100 µM (inactive)
GI50 (MOLT-4): > 100 µM (inactive)
GI50 (Malme-3M): > 100 µM (inactive)
GI50 (NCI-H226): > 100 µM (inactive)
GI50 (NCI-H23): > 100 µM (inactive)
GI50 (NCI-H460): > 100 µM (inactive)
GI50 (NCI-H522): > 100 µM (inactive)
GI50 (NCI/ADR-RES): > 100 µM (inactive)
GI50 (OVCAR-3): > 100 µM (inactive)
GI50 (OVCAR-4): > 100 µM (inactive)
GI50 (OVCAR-5): > 100 µM (inactive)
GI50 (OVCAR-8): > 100 µM (inactive)
GI50 (PC-3): > 100 µM (inactive)
GI50 (RPMI-8226): 45.9 µM (inactive)
GI50 (SF-268): 72.8 µM (inactive)
GI50 (SF-295): > 100 µM (inactive)
GI50 (SF-539): > 100 µM (inactive)
GI50 (SK-MEL-28): > 100 µM (inactive)
GI50 (SK-MEL-2): > 100 µM (inactive)
GI50 (SK-MEL-5): > 100 µM (inactive)
GI50 (SK-OV-3): > 100 µM (inactive)
GI50 (SN12C): > 100 µM (inactive)
GI50 (SNB-19): > 100 µM (inactive)
GI50 (SNB-75): > 100 µM (inactive)
GI50 (SR): 41.1 µM (inactive)
GI50 (SW-620): > 100 µM (inactive)
GI50 (T47D): 17.8 µM (inactive)
GI50 (TK-10): > 100 µM (inactive)
GI50 (U-251): > 100 µM (inactive)
GI50 (UACC-257): > 100 µM (inactive)
GI50 (UACC-62): > 100 µM (inactive)
GI50 (UO-31): > 100 µM (inactive)

O=C(NCCCCCCCCCCCCNC(=O)Nc1cccc2ccccc12)Nc1cccc2ccccc12
GI50 (786-0): 13.5 µM (inactive)
GI50 (A498): 16.9 µM (inactive)
GI50 (A549): 18.2 µM (inactive)
GI50 (ACHN): 14 µM (inactive)
GI50 (BT-549): 14.4 µM (inactive)
GI50 (CAKI-1): 17.9 µM (inactive)
GI50 (CCRF-CEM): 16.6 µM (inactive)
GI50 (COLO 205): 20.6 µM (inactive)
GI50 (DU-145): 24.3 µM (inactive)
GI50 (EKVX): 19.1 µM (inactive)
GI50 (HCC 2998): 14.2 µM (inactive)
GI50 (HCT-116): 17.5 µM (inactive)
GI50 (HCT-15): 18.4 µM
GI50 (HL-60): 18.2 µM (inactive)
GI50 (HOP-62): 6.15 µM (inactive)
GI50 (HOP-92): 12.1 µM (inactive)
GI50 (HT-29): 21 µM (inactive)
GI50 (Hs-578T): 14.7 µM (inactive)
GI50 (IGROV-1): 18.4 µM (inactive)
GI50 (K562): 20.2 µM (inactive)
GI50 (KM12): 18.4 µM (inactive)
GI50 (LOX IMVI): 18 µM (inactive)
GI50 (M14): 20.1 µM (inactive)
GI50 (MCF7): 18.3 µM (inactive)
GI50 (MDA-MB-231): 20.7 µM (inactive)
GI50 (MDA-MB-435): 17.9 µM (inactive)
GI50 (MDA-N): 17.4 µM (inactive)
GI50 (MOLT-4): 20.3 µM (inactive)
GI50 (Malme-3M): 15.3 µM (inactive)
GI50 (NCI-H23): 16.8 µM (inactive)
GI50 (NCI-H460): 15.5 µM (inactive)
GI50 (NCI-H522): 13.7 µM (inactive)
GI50 (NCI/ADR-RES): 24.1 µM (inactive)
GI50 (OVCAR-3): 16.7 µM (inactive)
GI50 (OVCAR-4): 11.2 µM (inactive)
GI50 (OVCAR-5): 25.2 µM (inactive)
GI50 (OVCAR-8): 22.9 µM (inactive)
GI50 (PC-3): 16.2 µM (inactive)
GI50 (RPMI-8226): 19.5 µM (inactive)
GI50 (RXF 393): 15.2 µM (inactive)
GI50 (SF-268): 14.3 µM (inactive)
GI50 (SF-295): 14.1 µM (inactive)
GI50 (SF-539): 13.2 µM (inactive)
GI50 (SK-MEL-28): 19.5 µM (inactive)
GI50 (SK-MEL-2): 15.2 µM (inactive)
GI50 (SK-MEL-5): 20.8 µM (inactive)
GI50 (SN12C): 17.6 µM (inactive)
GI50 (SNB-19): 15.1 µM (inactive)
GI50 (SNB-75): 12.9 µM (inactive)
GI50 (SR): 16.7 µM (inactive)
GI50 (SW-620): 17.4 µM (inactive)
GI50 (T47D): 19.1 µM (inactive)
GI50 (TK-10): 17.7 µM (inactive)
GI50 (U-251): 14.3 µM (inactive)
GI50 (UACC-257): > 10 µM (inactive)
GI50 (UACC-62): 12.6 µM (inactive)
GI50 (UO-31): 19.1 µM (inactive)
